Experimental data from ChEMBL document CHEMBL5584296, “Discovery of Novel Pyrimidine-Based Derivatives as Nav1.2 Inhibitors with Efficacy in Mouse Models of Epilepsy” (J Med Chem, 2024).

What was measured:
[1] = molecular target: T1, Sodium channel protein type 2 subunit alpha (Homo sapiens, UniProt Q99250); test: Inhibition of human Nav1.2 expressed in HEK293 cells at -120 mv holding potential measured after 5 mins by whole cell voltage clamp electrophysiological analysis; format: cell-based
Target sequence in this assay (Q99250 whole entry): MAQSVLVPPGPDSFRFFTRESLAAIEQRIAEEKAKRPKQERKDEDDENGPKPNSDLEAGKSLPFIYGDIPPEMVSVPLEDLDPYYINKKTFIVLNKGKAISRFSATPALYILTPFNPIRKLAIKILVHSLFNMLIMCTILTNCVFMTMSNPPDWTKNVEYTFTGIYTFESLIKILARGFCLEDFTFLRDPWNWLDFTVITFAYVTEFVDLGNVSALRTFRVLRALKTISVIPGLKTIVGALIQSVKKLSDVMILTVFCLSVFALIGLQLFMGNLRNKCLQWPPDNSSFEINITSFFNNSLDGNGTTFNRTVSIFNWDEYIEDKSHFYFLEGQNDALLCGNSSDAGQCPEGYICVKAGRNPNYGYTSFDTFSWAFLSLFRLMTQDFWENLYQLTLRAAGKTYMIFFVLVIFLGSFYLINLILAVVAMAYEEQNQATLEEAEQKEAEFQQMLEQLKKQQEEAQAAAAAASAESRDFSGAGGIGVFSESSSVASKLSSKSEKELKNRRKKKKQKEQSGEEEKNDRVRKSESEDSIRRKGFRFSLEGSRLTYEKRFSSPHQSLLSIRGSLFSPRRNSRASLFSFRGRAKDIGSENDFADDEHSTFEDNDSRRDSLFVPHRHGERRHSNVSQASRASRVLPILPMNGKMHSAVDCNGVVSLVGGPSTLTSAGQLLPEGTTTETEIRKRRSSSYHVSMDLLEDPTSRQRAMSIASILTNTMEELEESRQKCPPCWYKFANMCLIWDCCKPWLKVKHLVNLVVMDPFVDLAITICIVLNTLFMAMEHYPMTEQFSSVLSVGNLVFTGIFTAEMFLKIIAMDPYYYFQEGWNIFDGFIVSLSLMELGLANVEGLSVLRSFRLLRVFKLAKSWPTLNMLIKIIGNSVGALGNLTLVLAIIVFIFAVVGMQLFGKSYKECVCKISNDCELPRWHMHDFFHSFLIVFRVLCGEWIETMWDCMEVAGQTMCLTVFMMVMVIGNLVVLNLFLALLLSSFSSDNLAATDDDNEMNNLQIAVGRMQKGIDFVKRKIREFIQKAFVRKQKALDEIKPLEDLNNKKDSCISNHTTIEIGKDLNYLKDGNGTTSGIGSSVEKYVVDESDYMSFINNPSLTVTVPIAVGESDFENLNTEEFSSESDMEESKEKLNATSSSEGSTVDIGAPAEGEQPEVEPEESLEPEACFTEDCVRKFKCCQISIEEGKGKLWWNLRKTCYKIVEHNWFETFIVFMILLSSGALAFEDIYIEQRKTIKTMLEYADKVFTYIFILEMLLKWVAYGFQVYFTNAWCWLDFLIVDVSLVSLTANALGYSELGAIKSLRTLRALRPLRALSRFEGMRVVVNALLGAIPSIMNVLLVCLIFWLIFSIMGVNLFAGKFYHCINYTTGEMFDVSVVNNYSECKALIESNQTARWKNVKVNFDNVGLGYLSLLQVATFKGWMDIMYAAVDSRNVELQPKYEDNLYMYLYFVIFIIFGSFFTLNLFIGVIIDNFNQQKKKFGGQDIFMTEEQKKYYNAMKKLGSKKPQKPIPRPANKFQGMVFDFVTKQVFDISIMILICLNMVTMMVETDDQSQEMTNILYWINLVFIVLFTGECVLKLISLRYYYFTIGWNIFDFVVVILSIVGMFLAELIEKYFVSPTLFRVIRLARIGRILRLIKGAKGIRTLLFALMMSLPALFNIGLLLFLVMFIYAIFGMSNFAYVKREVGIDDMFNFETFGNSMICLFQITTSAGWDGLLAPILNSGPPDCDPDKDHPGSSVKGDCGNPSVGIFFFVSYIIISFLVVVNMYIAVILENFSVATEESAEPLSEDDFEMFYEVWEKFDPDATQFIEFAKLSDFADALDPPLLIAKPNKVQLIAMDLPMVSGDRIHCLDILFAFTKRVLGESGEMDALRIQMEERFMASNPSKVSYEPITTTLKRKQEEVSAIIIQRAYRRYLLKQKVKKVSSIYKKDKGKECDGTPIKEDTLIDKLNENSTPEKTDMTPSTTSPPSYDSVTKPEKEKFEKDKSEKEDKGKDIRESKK

[2] = Ratio of drug concentration in male ICR mouse brain to plasma at 10 mg/kg, ip measured after 0.25 hrs by LC-MS/MS analysis; format: ADME, organism-based; conditions: read-out: BPR
[3] = Ratio of drug concentration in male ICR mouse brain to plasma at 10 mg/kg, ip measured after 0.5 hrs by LC-MS/MS analysis; format: ADME, organism-based; conditions: read-out: BPR
[4] = Half-life in male ICR mouse at 10 mg/kg, ip measured after 24 hrs by LC-MS/MS analysis; format: ADME, organism-based; conditions: in vivo
[5] = molecular target: T1, Sodium channel protein type 2 subunit alpha; test: Inhibition of human Nav1.2 expressed in HEK293 cells at -40 mv holding potential measured after 5 mins by whole cell voltage clamp electrophysiological analysis; format: cell-based
Target sequence in this assay (Q99250 whole entry): as above

[6] = Drug concentration in male ICR mouse plasma at 10 mg/kg, ip measured after 0.25 hrs by LC-MS/MS analysis; format: ADME, organism-based
[7] = Half-life in male ICR mouse at 1 mg/kg, iv measured after 24 hrs by LC-MS/MS analysis; format: ADME, organism-based; conditions: in vivo
[8] = Bioavailability in male ICR mouse at 10 mg/kg, ip measured after 24 hrs by LC-MS/MS analysis; format: ADME, organism-based; conditions: in vivo
[9] = tested on: Mus musculus; test: Antiepileptic activity in 6 Hz(32 mA)-induced seizure male C57BL mouse model assessed as protection against seizure at 100 mg/kg, ip administered for 30 mins by epilepsy test; format: functional; conditions: 0.5 h
[10] = tested on: Mus musculus; test: Antiepileptic activity in 6 Hz(32 mA)-induced seizure male C57BL mouse model assessed as reduction in seizure time at 100 mg/kg, ip administered for 30 mins by epilepsy test (reference value: 22.7 +/- 1.6 sec); format: functional; conditions: 0.5 h
[11] = molecular target: T1, Sodium channel protein type 2 subunit alpha; test: Inhibition of human Nav1.2 expressed in HEK293 cells assessed as test to control ratio at 10 uM measured after 5 mins by whole cell voltage clamp electrophysiological analysis; format: cell-based
Target sequence in this assay (Q99250 whole entry, looked up): as the sequence (Q99250 whole entry) above

[12] = molecular target: T1, Sodium channel protein type 2 subunit alpha; test: Inhibition of human Nav1.2 expressed in HEK293 cells assessed as test to control ratio at 0.1 uM measured after 5 mins by whole cell voltage clamp electrophysiological analysis; format: cell-based
Target sequence in this assay (Q99250 whole entry, looked up): as the sequence (Q99250 whole entry) above

[13] = Ratio of drug concentration in male ICR mouse brain to plasma at 20 mg/kg, po measured after 0.25 hrs by LC-MS/MS analysis; format: ADME, organism-based; conditions: read-out: BPR
[14] = Drug concentration in male ICR mouse brain at 10 mg/kg, ip measured after 0.5 hrs by LC-MS/MS analysis; format: ADME, organism-based; conditions: read-out: Ct
[15] = tested on: Mus musculus; test: Antiepileptic activity in MES-induced seizure male ICR mouse model assessed as protection against tonic hind limb extension at 2 mg/kg, ip measured after 30 mins relative to control; format: functional; conditions: 0.5 h
[16] = molecular target: T1, Sodium channel protein type 2 subunit alpha; test: Inhibition of human Nav1.2 expressed in HEK293 cells assessed as effect on steady state activation by measuring half activation potential at 10 uM (reference value: -33 mV); format: cell-based
Target sequence in this assay (Q99250 whole entry, looked up): as the sequence (Q99250 whole entry) above

IC50 [1]: 11 µM
Kp at 0.25 h [2]: 3.1
Kp at 0.5 h [3]: 3.6
half-life [4]: 56.4 min
IC50 [5]: 0.12 µM
concentration at 0.25 h [6]: 620 ng/mL
half-life [7]: 31.2 min
bioavailability [8]: 43%
T/C [11]: 0.02
T/C [12]: 0.6
Kp at 0.25 h [13]: 3.9
concentration at 0.5 h [14]: 800 ng/g
V1/2 [16]: -31 mV
Structure (SMILES): COc1cccc(-c2cc(N3CCCc4ccccc4C3)nc(N)n2)c1
Activity [9]: 25%
Time [10]: 12.9 s
Activity [15]: 25%
